Data: patent US11286268B1, “EIF4E-inhibiting compounds and methods” (EFFECTOR THERAPEUTICS, INC., priority 2019, dated 2022)
Like-named read-outs stand apart in the source and are kept apart here.

Target: recombinant eIF4E (Homo sapiens (Human), UniProt P06730)
Experiment: Fluorescence polarization competition assay for eIF4E binding potency
Method in brief: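 Competition of test compound against 20 nM EDA-m^7GDP-ATTO-550 for 75 nM recombinant eIF4E, pre-incubated 5 min, in 20 mM Tris pH 7.5, 100 mM NaCl, 1 mM DTT, 0.02% Tween-20, 1% DMSO. Equilibrated 30 min at room temperature, dark; fluorescence polarization read. IC50 from 8-point, 3-fold dilution series.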

[1] = fluorescence polarization competition, 75 nM recombinant eIF4E, 20 nM EDA-m7GDP-ATTO-550, IC50 class, read-out: elF4E FP
[2] = inhibition of eIF4E/EDA-m7GDP-ATTO-550 binding by 50%, Table 4B calculated values, read-out: IC50

Sequence of recombinant eIF4E (P06730 whole entry): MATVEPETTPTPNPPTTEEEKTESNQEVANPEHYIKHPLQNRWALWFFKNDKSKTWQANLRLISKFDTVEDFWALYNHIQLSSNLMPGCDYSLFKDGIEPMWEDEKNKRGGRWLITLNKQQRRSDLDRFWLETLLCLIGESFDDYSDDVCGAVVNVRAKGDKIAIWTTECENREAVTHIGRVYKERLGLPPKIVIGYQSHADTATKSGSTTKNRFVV

Compound	IC50 [1]	IC50 [2]
Cc1nc2cc(C(F)(F)F)cc(C#N)c2c(=O)n1CCOc1ccc(Cl)cc1-c1ccnc2c(C(=O)O)c(C(F)(F)F)sc12 [compound 666]	0.05 to 1 µM	0.268 µM
Cc1cc(-c2cc(Cl)ccc2OCCn2c(C)nc3c(ccc4cnncc43)c2=O)c2scc(C(=O)O)c2n1 [compound 671]	0.05 to 1 µM	0.0777 µM
Cc1nc2cc(C(F)(F)F)cc(C#N)c2c(=O)n1CCOc1ccc(Cl)cc1-c1cc(C2CC2)nc2c(C(=O)O)csc12 [compound 672]	0.05 to 1 µM	0.106 µM
Cc1cc(-c2cc(Cl)ccc2OCCn2c(C)nc3ccc(N4CCN(C)CC4)nc3c2=O)c2scc(C(=O)O)c2n1 [compound 678]	0.05 to 1 µM	0.0538 µM
Cc1cc(-c2cc(Cl)ccc2OCCn2c(C)nc3ccc(N(C)C)nc3c2=O)c2scc(C(=O)O)c2n1 [compound 679]	0.05 to 1 µM	0.16 µM
Cc1cc(-c2cc(Cl)ccc2OCCn2c(C)nc3c(C(F)(F)F)cc(Cl)nc3c2=O)c2scc(C(=O)O)c2n1 [compound 680]	0.05 to 1 µM	0.0566 µM
Cc1cc(-c2cc(Cl)ccc2OCCn2c(C)nc3cc(Cl)c(Nc4cccnc4)c(C#N)c3c2=O)c2scc(C(=O)O)c2n1 [compound 700]	< 0.05 µM	0.0224 µM
COC1CN(c2c(Cl)cc3nc(C)n(CCOc4ccc(Cl)cc4-c4cc(C)nc5c(C(=O)O)csc45)c(=O)c3c2C#N)C1 [compound 701]	< 0.05 µM	0.0192 µM
Cc1cc(-c2cc(Cl)ccc2OCCn2c(C)nc3cc(Cl)c(N4CC(S(C)(=O)=O)C4)c(C#N)c3c2=O)c2scc(C(=O)O)c2n1 [compound 702]	< 0.05 µM	0.0127 µM
Cc1cc(-c2cc(Cl)ccc2OCCn2c(C)nc3cc(Cl)c(N4CC(C)(CO)C4)c(C#N)c3c2=O)c2scc(C(=O)O)c2n1 [compound 703]	< 0.05 µM	0.00318 µM
CSC1CN(c2c(Cl)cc3nc(C)n(CCOc4ccc(Cl)cc4-c4cc(C)nc5c(C(=O)O)csc45)c(=O)c3c2C#N)C1 [compound 704]	0.05 to 1 µM	0.089 µM
Cc1nc2cc(C(F)(F)F)c(N3CCN(C)CC3)c(C#N)c2c(=O)n1CCOc1ccc(Cl)cc1-c1ccnc2ccsc12 [compound 705]	< 0.05 µM	0.0191 µM
Cc1ncc(F)cc1-c1c(C(F)(F)F)cc2nc(C)n(CCOc3ccc(Cl)cc3-c3ccnc4ccsc34)c(=O)c2c1C#N [compound 706]	0.05 to 1 µM	
Cc1nc2cnc(N3CCN(C)CC3)c(C#N)c2c(=O)n1CCOc1ccc(Cl)cc1-c1ccnc2c(C(=O)O)csc12 [compound 707]	< 0.05 µM	0.0178 µM
Cc1cc(-c2cc(Cl)ccc2OCCn2c(C)nc3cc(C(F)(F)F)c(C4CCCN4C)c(C#N)c3c2=O)c2scc(C(=O)O)c2n1 (centres unmarked) [compound 708]	0.05 to 1 µM	0.0878 µM
Cc1cc(-c2cc(Cl)ccc2OCCn2c(C)nc3cc(C(F)(F)F)c(CCCN(C)C)c(C#N)c3c2=O)c2scc(C(=O)O)c2n1 [compound 709]	0.05 to 1 µM	0.0567 µM
Cc1cc(-c2cc(Cl)ccc2OCCn2c(C)nc3cc(C(C)N(C)C)c(OC(F)F)c(C#N)c3c2=O)c2scc(C(=O)O)c2n1 (centres unmarked) [compound 710]	< 0.05 µM	0.0316 µM
Cc1cc(-c2cc(Cl)ccc2OCCn2c(C)nc3cc(C(F)(F)F)c(C(C)N(C)C)c(C#N)c3c2=O)c2scc(C(=O)O)c2n1 (centres unmarked) [compound 711]	0.05 to 1 µM	0.0775 µM
Cc1cc(-c2cc(Cl)ccc2OCCn2c(C)nc3cc4c(c(C#N)c3c2=O)CN(C)C4)c2scc(C(=O)O)c2n1 [compound 712]	< 0.05 µM	0.0196 µM
Cc1cc(-c2cc(Cl)ccc2OCCn2c(C)nc3cc(C(F)(F)F)c(CC4CCN(C)CC4)c(C#N)c3c2=O)c2scc(C(=O)O)c2n1 [compound 713]	< 0.05 µM	0.0314 µM
Cc1cc(-c2cc(Cl)ccc2OCCn2c(C)nc3cc(C(F)(F)F)c(CC4CCNCC4)c(C#N)c3c2=O)c2scc(C(=O)O)c2n1 [compound 714]	< 0.05 µM	0.0472 µM
Cc1cc(-c2cc(Cl)ccc2OCCn2c(C)nc3cc(C)c(CN4CCN(C)CC4)c(C#N)c3c2=O)c2scc(C(=O)O)c2n1 [compound 718]	< 0.05 µM	0.0201 µM
Cc1ccc(-c2cc(Cl)ccc2OCCn2c(C)nc3cc(C(F)(F)F)c(CN4CCN(C)CC4)c(C#N)c3c2=O)c2scc(C(=O)O)c12 [compound 719]	< 0.05 µM	0.0285 µM
Cc1nc2cc(Cl)c3c(cnn3C)c2c(=O)n1CCOc1ccc(Cl)cc1-c1ccnc2c(C(=O)O)csc12 [compound 720]	0.05 to 1 µM	0.199 µM
COc1ccc(-c2cc(Cl)ccc2OCCn2c(C)nc3c(C)ncc(C#N)c3c2=O)c2scc(C(=O)O)c12 [compound 721]	< 0.05 µM	0.0206 µM

Now from value to compound:

IC50 [1]	IC50 [2]	Compound
< 0.05 µM	0.0165 µM	Cc1c(CC#Cc2ccc(Cl)cc2-c2ccnc3c(C(=O)O)csc23)c(=O)c2c(C#N)cc(C(F)(F)F)cc2n1C [compound 665]
< 0.05 µM	0.0467 µM	Cc1nc2cc(C(F)(F)F)cc(C#N)c2c(=O)n1CCOc1ccc(Cl)cc1-c1ccnc2c(C(=O)O)c(C(C)C)sc12 [compound 667]
< 0.05 µM	0.00776 µM	Cc1cc(-c2cc(Cl)ccc2OCCn2c(C)nc3cc(C(F)(F)F)cc(C#N)c3c2=O)c2sc(C)c(C(=O)O)c2n1 [compound 668]
< 0.05 µM	0.0364 µM	Cc1c(CC#Cc2ccc(Cl)cc2-c2ccnc3c(C(=O)O)csc23)c(=O)c2c(C#N)c(Cl)c(C(F)(F)F)cc2n1C [compound 669]
< 0.05 µM	0.018 µM	Cc1cc(-c2cc(Cl)ccc2OCCn2c(C)nc3cc(C(F)(F)F)c(CN(C)C)c(C#N)c3c2=O)c2sc(C)c(C(=O)O)c2n1 [compound 670]
< 0.05 µM	0.0253 µM	Cc1cc(-c2cc(Cl)ccc2OCCn2c(C)nc3c(C)ncc(C#N)c3c2=O)c2scc(C(=O)O)c2n1 [compound 673]
< 0.05 µM		Cc1ncc(C#N)c2c(=O)n(CCOc3ccc(Cl)cc3-c3ccnc4c(C(=O)O)csc34)c(C)nc12 [compound 674]
< 0.05 µM	0.00777 µM	Cc1cccc(-c2c(C(F)(F)F)cc3nc(C)n(CCOc4ccc(Cl)cc4-c4cc(C)nc5c(C(=O)O)csc45)c(=O)c3c2C#N)n1 [compound 675]
< 0.05 µM	0.00622 µM	Cc1cc(-c2cc(Cl)ccc2OCCn2c(C)nc3cc(C(F)(F)F)c(N4CCN(C)CC4)nc3c2=O)c2scc(C(=O)O)c2n1 [compound 676]
< 0.05 µM	0.00544 µM	Cc1cc(-c2cc(Cl)ccc2OCCn2c(C)nc3c(C(F)(F)F)cc(N4CCN(C)CC4)nc3c2=O)c2scc(C(=O)O)c2n1 [compound 677]
< 0.05 µM	0.00621 µM	Cc1nc2cc(C(F)(F)F)c(N3CCN(C)CC3)nc2c(=O)n1CC#Cc1ccc(Cl)cc1-c1ccnc2c(C(=O)O)csc12 [compound 682]
< 0.05 µM	0.0403 µM	Cc1cccc(-c2c(Cl)cc3nc(C)n(CCOc4ccc(Cl)cc4-c4cc(C)nc5c(C(=O)O)c(C)sc45)c(=O)c3c2C#N)n1 [compound 683]
< 0.05 µM	0.015 µM	Cc1cc(F)cc(-c2c(C(F)(F)F)cc3nc(C)n(CCOc4ccc(Cl)cc4-c4cc(C)nc5c(C(=O)O)csc45)c(=O)c3c2C#N)n1 [compound 684]
< 0.05 µM		Cc1cc2nc(C)n(CCOc3ccc(Cl)cc3-c3cc(C)nc4c(C(=O)O)csc34)c(=O)c2c(C#N)n1 [compound 685]
< 0.05 µM	0.0265 µM	Cc1cc(-c2cc(Cl)ccc2OCCn2c(C)nc3cc(C(F)(F)F)c(-c4ccnc(C)c4C)c(C#N)c3c2=O)c2scc(C(=O)O)c2n1 [compound 686]
< 0.05 µM	0.0135 µM	Cc1cc(-c2cc(Cl)ccc2OCCn2c(C)nc3cc(C(F)(F)F)c(N4CC(F)(F)C4)c(C#N)c3c2=O)c2scc(C(=O)O)c2n1 [compound 687]
< 0.05 µM	0.0228 µM	Cc1cc(-c2cc(Cl)ccc2OCCn2c(C)nc3cc(Cl)c(N4CC(F)(F)C4)c(C#N)c3c2=O)c2scc(C(=O)O)c2n1 [compound 688]
< 0.05 µM	0.0115 µM	Cc1cc(-c2cc(Cl)ccc2OCCn2c(C)nc3cc(Cl)c(N4CC(C(F)(F)F)C4)c(C#N)c3c2=O)c2scc(C(=O)O)c2n1 [compound 689]
< 0.05 µM	0.00595 µM	Cc1cc(-c2cc(Cl)ccc2OCCn2c(C)nc3cc(Cl)c(N4CCC(F)(F)C4)c(C#N)c3c2=O)c2scc(C(=O)O)c2n1 [compound 690]
< 0.05 µM	0.00717 µM	Cc1cc(-c2cc(Cl)ccc2OCCn2c(C)nc3cc(Cl)c(N4CC(C)(C)C4)c(C#N)c3c2=O)c2scc(C(=O)O)c2n1 [compound 691]
< 0.05 µM	0.00597 µM	Cc1cc(-c2cc(Cl)ccc2OCCn2c(C)nc3cc(Cl)c(N)c(C#N)c3c2=O)c2scc(C(=O)O)c2n1 [compound 692]
< 0.05 µM	0.015 µM	Cc1cc(-c2cc(Cl)ccc2OCCn2c(C)nc3cc(Cl)cc(C#N)c3c2=O)c2scc(C(=O)O)c2n1 [compound 693]
< 0.05 µM	0.0191 µM	CNc1c(Cl)cc2nc(C)n(CCOc3ccc(Cl)cc3-c3cc(C)nc4c(C(=O)O)csc34)c(=O)c2c1C#N [compound 694]
< 0.05 µM	0.00105 µM	Cc1cc(-c2cc(Cl)ccc2OCCn2c(C)nc3cc(Cl)c(O)c(C#N)c3c2=O)c2scc(C(=O)O)c2n1 [compound 695]
< 0.05 µM	0.00894 µM	Cc1cc(-c2cc(Cl)ccc2OCCn2c(C)nc3cc(Cl)c(N(C)C)c(C#N)c3c2=O)c2scc(C(=O)O)c2n1 [compound 696]
< 0.05 µM	0.0102 µM	Cc1cc(-c2cc(Cl)ccc2OCCn2c(C)nc3cc(Cl)c(N4CCCC4=O)c(C#N)c3c2=O)c2scc(C(=O)O)c2n1 [compound 697]
< 0.05 µM	0.0034 µM	Cc1cc(-c2cc(Cl)ccc2OCCn2c(C)nc3cc(Cl)c(N4CC(O)C4)c(C#N)c3c2=O)c2scc(C(=O)O)c2n1 [compound 698]
